In the NIST ThermoML archive (doi:10.1016/j.jct.2008.10.007):

Columns and labels:
[1] = excess molar enthalpy (molar enthalpy of mixing); xn = mol fraction of the nth substance listed; settings: 298.15 K, 101 kPa, Liquid, Calvet calorimetry
[2] = xn = mol fraction of the nth substance listed; settings: 298.15 K, 101 kPa, Liquid, Vibrating tube method

CCCOC(=O)CCC [propyl butanoate] + ClCCCCCl
Settings	excess molar enthalpy [kcal/mol]	mass density [kg/m3]
[1], x1 = 0.0503	-0.00454	–
[1], x1 = 0.1217	-0.0117	–
[1], x1 = 0.2009	-0.0203	–
[1], x1 = 0.2826	-0.0306	–
[1], x1 = 0.3602	-0.0416	–
[1], x1 = 0.4315	-0.0516	–
[1], x1 = 0.5579	-0.0629	–
[1], x1 = 0.6248	-0.0612	–
[1], x1 = 0.699	-0.0559	–
[1], x1 = 0.7829	-0.0457	–
[1], x1 = 0.8689	-0.0301	–
[1], x1 = 0.9389	-0.0158	–
[2], x1 = 0.1349	–	1087.88
[2], x1 = 0.1841	–	1072.12
[2], x1 = 0.233	–	1056.97
[2], x1 = 0.2856	–	1041.17
[2], x1 = 0.3405	–	1025.23
[2], x1 = 0.3956	–	1009.76
[2], x1 = 0.5129	–	978.41
[2], x1 = 0.6385	–	947.12
[2], x1 = 0.7731	–	915.88
[2], x1 = 0.8454	–	900
[2], x1 = 0.918	–	884.64
[2], x1 = 1	–	867.9

ClCCCCl [1,3-dichloropropane] + CCCOC(=O)CC
Settings	excess molar enthalpy [kcal/mol]	mass density [kg/m3]
[1], x2 = 0.0469	-0.00932	–
[1], x2 = 0.1103	-0.0208	–
[1], x2 = 0.1814	-0.0361	–
[1], x2 = 0.2562	-0.0545	–
[1], x2 = 0.3312	-0.0691	–
[1], x2 = 0.4023	-0.0803	–
[1], x2 = 0.4661	-0.0882	–
[1], x2 = 0.528	-0.0927	–
[1], x2 = 0.6046	-0.0894	–
[1], x2 = 0.706	-0.0793	–
[1], x2 = 0.816	-0.0576	–
[1], x2 = 0.9152	-0.0318	–
[2], x2 = 0.0456	–	1160.2
[2], x2 = 0.09	–	1142.38
[2], x2 = 0.1357	–	1124.66
[2], x2 = 0.1827	–	1107.03
[2], x2 = 0.2323	–	1089.1
[2], x2 = 0.2857	–	1070.52
[2], x2 = 0.3377	–	1053.06
[2], x2 = 0.3926	–	1035.32
[2], x2 = 0.5112	–	999.15
[2], x2 = 0.5749	–	980.88
[2], x2 = 0.6382	–	963.43
[2], x2 = 0.7097	–	944.54
[2], x2 = 0.7804	–	926.67
[2], x2 = 0.8459	–	910.76
[2], x2 = 0.9232	–	892.71

ClCCCl [1,2-dichloroethane] + CCCOC(C)=O
Settings	excess molar enthalpy [kcal/mol]	mass density [kg/m3]
[1], x2 = 0.0472	-0.0155	–
[1], x2 = 0.1047	-0.0332	–
[1], x2 = 0.1719	-0.0559	–
[1], x2 = 0.2424	-0.0793	–
[1], x2 = 0.3127	-0.102	–
[1], x2 = 0.3806	-0.117	–
[1], x2 = 0.4423	-0.128	–
[1], x2 = 0.5012	-0.132	–
[1], x2 = 0.5663	-0.13	–
[1], x2 = 0.6408	-0.122	–
[1], x2 = 0.7169	-0.107	–
[1], x2 = 0.8115	-0.0784	–
[1], x2 = 0.9076	-0.0447	–
[2], x2 = 0.0403	–	1224.14
[2], x2 = 0.0822	–	1202.71
[2], x2 = 0.1258	–	1181.25
[2], x2 = 0.1723	–	1159.34
[2], x2 = 0.2206	–	1137.71
[2], x2 = 0.271	–	1116.1
[2], x2 = 0.323	–	1094.66
[2], x2 = 0.3773	–	1073.38
[2], x2 = 0.435	–	1051.79
[2], x2 = 0.4925	–	1031.26
[2], x2 = 0.5542	–	1010.09
[2], x2 = 0.6231	–	987.69
[2], x2 = 0.693	–	966.04
[2], x2 = 0.7654	–	944.7
[2], x2 = 0.8389	–	924.07
[2], x2 = 0.9173	–	903.11

CCCOC(C)=O [propyl ethanoate] + ClCCCCCCCl
Settings	mass density [kg/m3]
[2], x1 = 1	882.08

CCCOC=O [propyl methanoate] + ClCCCCCCCl
Settings	excess molar enthalpy [kcal/mol]	mass density [kg/m3]
[1], x1 = 0.0891	0.021	–
[1], x1 = 0.2066	0.0373	–
[1], x1 = 0.3241	0.049	–
[1], x1 = 0.4164	0.0523	–
[1], x1 = 0.4832	0.0504	–
[1], x1 = 0.5353	0.0473	–
[1], x1 = 0.5847	0.0433	–
[1], x1 = 0.6323	0.039	–
[1], x1 = 0.6975	0.0323	–
[1], x1 = 0.7658	0.0249	–
[1], x1 = 0.8389	0.0165	–
[1], x1 = 0.9059	0.00908	–
[1], x1 = 0.9621	0.00382	–
[2], x1 = 0.0861	–	1054
[2], x1 = 0.1676	–	1044.21
[2], x1 = 0.2459	–	1034.25
[2], x1 = 0.3157	–	1024.9
[2], x1 = 0.3867	–	1014.88
[2], x1 = 0.4515	–	1005.28
[2], x1 = 0.5124	–	995.82
[2], x1 = 0.6287	–	976.43
[2], x1 = 0.6818	–	966.95
[2], x1 = 0.7826	–	947.72
[2], x1 = 0.8311	–	937.83
[2], x1 = 0.8777	–	927.92
[2], x1 = 0.9609	–	909.1
[2], x1 = 1	–	899.81

CCCOC(=O)CCC [propyl butanoate] + ClCCCCCCCl
Settings	excess molar enthalpy [kcal/mol]	mass density [kg/m3]
[1], x1 = 0.0619	-0.00526	–
[1], x1 = 0.1445	-0.011	–
[1], x1 = 0.2343	-0.0182	–
[1], x1 = 0.3207	-0.0258	–
[1], x1 = 0.3911	-0.0327	–
[1], x1 = 0.4594	-0.0378	–
[1], x1 = 0.5174	-0.0404	–
[1], x1 = 0.5559	-0.0411	–
[1], x1 = 0.6181	-0.0402	–
[1], x1 = 0.6903	-0.037	–
[1], x1 = 0.7651	-0.0315	–
[1], x1 = 0.849	-0.0229	–
[1], x1 = 0.9334	-0.012	–
[2], x1 = 0.1123	–	1041.34
[2], x1 = 0.1686	–	1030.2
[2], x1 = 0.2265	–	1018.77
[2], x1 = 0.2841	–	1007.46
[2], x1 = 0.3424	–	995.99
[2], x1 = 0.4025	–	984.2
[2], x1 = 0.4598	–	973.01
[2], x1 = 0.5766	–	950.16
[2], x1 = 0.6959	–	926.91
[2], x1 = 0.755	–	915.37
[2], x1 = 0.8145	–	903.79
[2], x1 = 0.8778	–	891.49
[2], x1 = 0.9367	–	880.14
[2], x1 = 1	–	867.9

CCCOC(=O)CC [propyl propanoate] + ClCCCCCl
Settings	mass density [kg/m3]
[2], x1 = 1	875.61

CCCOC(C)=O [propyl ethanoate] + ClCCCCCl
Settings	mass density [kg/m3]
[2], x1 = 1	882.08

ClCCCCCl [1,4-dichlorobutane] + CCCOC(C)=O
Settings	excess molar enthalpy [kcal/mol]	mass density [kg/m3]
[1], x2 = 0.0555	-0.00478	–
[1], x2 = 0.1316	-0.0131	–
[1], x2 = 0.2183	-0.0234	–
[1], x2 = 0.3079	-0.0359	–
[1], x2 = 0.3915	-0.048	–
[1], x2 = 0.456	-0.055	–
[1], x2 = 0.4663	-0.0559	–
[1], x2 = 0.4979	-0.0576	–
[1], x2 = 0.5721	-0.0564	–
[1], x2 = 0.6576	-0.0523	–
[1], x2 = 0.7494	-0.0447	–
[1], x2 = 0.8443	-0.0318	–
[1], x2 = 0.9296	-0.0174	–
[2], x2 = 0.0583	–	1118.51
[2], x2 = 0.1175	–	1103.2
[2], x2 = 0.1743	–	1088.55
[2], x2 = 0.232	–	1073.72
[2], x2 = 0.3494	–	1043.76
[2], x2 = 0.465	–	1014.55
[2], x2 = 0.523	–	999.98
[2], x2 = 0.5845	–	984.6
[2], x2 = 0.6424	–	970.19
[2], x2 = 0.7011	–	955.64
[2], x2 = 0.7618	–	940.61
[2], x2 = 0.8813	–	911.2
[2], x2 = 0.9397	–	896.91

ClCCCCCCl [1,5-dichloropentane] + CCCOC(=O)CC
Settings	excess molar enthalpy [kcal/mol]	mass density [kg/m3]
[1], x2 = 0.0588	-0.00406	–
[1], x2 = 0.1375	-0.0136	–
[1], x2 = 0.2257	-0.0241	–
[1], x2 = 0.3118	-0.0375	–
[1], x2 = 0.3922	-0.0495	–
[1], x2 = 0.4517	-0.0576	–
[1], x2 = 0.4693	-0.059	–
[1], x2 = 0.5239	-0.0609	–
[1], x2 = 0.5982	-0.0588	–
[1], x2 = 0.6783	-0.0526	–
[1], x2 = 0.7663	-0.0425	–
[1], x2 = 0.855	-0.0287	–
[1], x2 = 0.9359	-0.0146	–
[2], x2 = 0.0586	–	1081.99
[2], x2 = 0.1204	–	1068.2
[2], x2 = 0.1736	–	1056.39
[2], x2 = 0.2854	–	1031.55
[2], x2 = 0.3403	–	1019.42
[2], x2 = 0.4006	–	1006.12
[2], x2 = 0.5242	–	978.97
[2], x2 = 0.635	–	954.74
[2], x2 = 0.6961	–	941.43
[2], x2 = 0.7548	–	928.67
[2], x2 = 0.8219	–	914.07
[2], x2 = 0.8809	–	901.3
[2], x2 = 0.942	–	888.12

CCCOC(=O)CCC [propyl butanoate] + ClCCCl
Settings	excess molar enthalpy [kcal/mol]	mass density [kg/m3]
[1], x1 = 0.0365	-0.00837	–
[1], x1 = 0.0999	-0.0229	–
[1], x1 = 0.1556	-0.0363	–
[1], x1 = 0.2176	-0.0526	–
[1], x1 = 0.281	-0.0684	–
[1], x1 = 0.343	-0.0851	–
[1], x1 = 0.3848	-0.0951	–
[1], x1 = 0.4055	-0.098	–
[1], x1 = 0.4534	-0.106	–
[1], x1 = 0.5266	-0.109	–
[1], x1 = 0.6369	-0.0997	–
[1], x1 = 0.7616	-0.0746	–
[1], x1 = 0.8961	-0.0399	–
[2], x1 = 0.0329	–	1222.22
[2], x1 = 0.065	–	1200.67
[2], x1 = 0.1029	–	1176.79
[2], x1 = 0.1385	–	1155.7
[2], x1 = 0.1815	–	1132.09
[2], x1 = 0.2225	–	1110.75
[2], x1 = 0.2703	–	1087.77
[2], x1 = 0.3191	–	1065.93
[2], x1 = 0.3743	–	1043.05
[2], x1 = 0.4285	–	1022.26
[2], x1 = 0.4904	–	1000.19
[2], x1 = 0.556	–	978.67
[2], x1 = 0.628	–	956.91
[2], x1 = 0.7087	–	934.51
[2], x1 = 0.7989	–	911.8
[2], x1 = 0.8938	–	890.06
[2], x1 = 1	–	867.9

CCCOC(C)=O [propyl ethanoate] + ClCCCl
Settings	mass density [kg/m3]
[2], x1 = 1	882.08

CCCOC(C)=O [propyl ethanoate] + ClCCCCCCl
Settings	mass density [kg/m3]
[2], x1 = 1	882.08

CCCOC(=O)CC [propyl propanoate] + ClCCCCCCCl
Settings	mass density [kg/m3]
[2], x1 = 1	875.61

CCCOC(=O)CC [propyl propanoate] + ClCCCCl
Settings	mass density [kg/m3]
[2], x1 = 1	875.61
